The values that follow come from patent US20200172483A1, “HETEROCYCLIC SMALL MOLECULE MODULATORS OF HUMAN STING” (Curadev Pharma Limited, priority 2017, published 2020).

By EC50 is commonly meant the concentration giving half of the maximal effect.

T1 sequence (Q86WV6 whole entry H232R): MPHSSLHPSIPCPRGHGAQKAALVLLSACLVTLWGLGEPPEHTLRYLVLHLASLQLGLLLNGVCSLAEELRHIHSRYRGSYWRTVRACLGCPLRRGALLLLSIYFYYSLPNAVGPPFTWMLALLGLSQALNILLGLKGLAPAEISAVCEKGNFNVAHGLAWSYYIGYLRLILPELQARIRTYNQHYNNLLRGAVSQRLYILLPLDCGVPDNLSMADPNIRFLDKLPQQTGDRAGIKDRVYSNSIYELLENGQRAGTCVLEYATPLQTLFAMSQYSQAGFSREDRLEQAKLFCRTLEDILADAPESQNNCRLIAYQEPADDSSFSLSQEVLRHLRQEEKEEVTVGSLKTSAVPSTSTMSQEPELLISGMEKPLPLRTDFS

The test has as its target T1, WT/R232 STING protein (Homo sapiens, UniProt Q86WV6, H232R).
T1 construct: host or cells: HEK293T
The test is described as follows: Luciferase reporter assay in HEK293T-hSTING-Luciferase cells (R232). Format: cell-based. To be noted: 20 hr stimulation, EC50 range. The source says:
• a) Stable STING expressing cells—Stable HEK293T STING-expressing cell lines were generated using plasmids purchased from Invivogen, CA, USA, that contain STING cDNA cloned into the pUNO-1 vector under hEF1-HTLV promoter and containing the Blasticidin selection cassette. The plasmids hSTING (R232), hSTING (H232), hSTING (HAQ) were directly procured from Invivogen while hSTING (AQ) and hSTING (Q) were derived from hSTING (HAQ) and hSTING (R232) plasmids respectively by using a PCR based site directed mutagenesis method. These vectors were individually transfected into HEK293T cells using Lipofectamine (Invitrogen) and transfected cells were selected under Blasticidin selection. These transfected cells were further subjected to clonal selection using the limiting dilution method to obtain clonally pure populations of HEK cells transfected with each of the above mentioned human STING variants. Only those clones were selected in which ligand independent activation of STING was minimal. • b) Stable Luciferase reporter gene expressing cells—Stable HEK293T Luciferase reporter gene expressing cell lines were generated using pCDNA4 plasmids under an IRF-inducible promoter. This promoter is comprised of five tandem interferon-stimulated response elements (ISRE) fused to an ISG54 minimal promoter. This vector was transfected into HEK293T cells using Lipofectamine (Invitrogen) and transfected cells were selected under Zeocin selection. These transfected cells were further subjected to clonal selection using the limiting dilution method to obtain clonally pure populations of HEK cells transfected the Luciferase reporter construct. Only those clones were selected in which ligand independent induction of luciferase was minimal.
5×10^5 clonally selected HEK293T-hSTING-Luciferase cells were seeded in 384-well plates in growth medium and stimulated with novel compounds. After 20 hr of stimulation supernatant were removed and secretary reporter gene activity were measured using the Quanti-Luc detection system (Invivogen) on a Spectramax i3X luminometer.
All compounds were first tested in a primary screen using WT/R232 STING protein to obtain a ‘fold-induction’ over baseline levels of protein activity.
On the technique in general: In a reporter assay the amount or activity of a reporter protein is the signal.
Turning to `CC1(C)C(=O)N(Cc2ccccc2F)c2cc(C(=O)NCc3ccco3)ccc21` [Example 1, 1-(2-Fluorobenzyl)-N-(furan-2-ylmethyl)-3,3-dimethyl-2-oxoindoline-6-carboxamide], the EC50 is 1 to 10 µM. Next, `CC1(C)C(=O)N(Cc2ccccc2F)c2cc(C(=O)N(CC(=O)O)Cc3ccco3)ccc21` [Example 3, 2-(1-(2-fluorobenzyl)-N-(furan-2-ylmethyl)-3,3-dimethyl-2-oxoindoline-6-carboxamido)acetic acid]: more than 10 µM; `CC1(C)C(=O)N(Cc2c(F)cccc2Cl)c2cc(C(=O)NCc3cccs3)ccc21` [Example 7, 1-(2-chloro-6-fluorobenzyl)-3,3-dimethyl-2-oxo-N-(thiophen-2-ylmethyl)indoline-6-carboxamide]: 1 to 10 µM; `CC1(C)C(=O)N(Cc2c(F)cccc2Cl)c2cc(C(=O)NCc3cccc(Cl)c3)ccc21` [Example 9, 1-(2-chloro-6-fluorobenzyl)-N-(3-chlorobenzyl)-3,3-dimethyl-2-oxoindoline-6-carboxamide]: 1 to 10 µM.

Molecule `CC1(C)C(=O)N(Cc2ccccc2)c2cc(C(=O)NCc3ccccc3)ccc21` [Example 10, N,1-dibenzyl-3,3-dimethyl-2-oxoindoline-6-carboxamide] came in with a concentration giving a half-maximal response (EC50) of 1 to 10 µM. Regarding `Cc1cc(CN2C(=O)C(C)(C)c3ccc(C(=O)NCc4c(F)cc(F)cc4F)cc32)cc(C(F)(F)F)c1` [Example 15, 3,3-dimethyl-1-(3-methyl-5-(trifluoromethyl)benzyl)-2-oxo-N-(2,4,6-trifluorobenzyl)indoline-6-carboxamide], the EC50 was in the range of 1 to 10 µM. On to `CC1(C)C(=O)N(Cc2cccc(C(F)(F)F)c2)c2cc(C(=O)NCc3c(F)cc(F)cc3F)ccc21` [Example 17, 3,3-dimethyl-2-oxo-N-(2,4,6-trifluorobenzyl)-1-(3-(trifluoromethyl)benzyl)indoline-6-carboxamide], for which the EC50 lay in the range of 1 to 10 µM. `CC1C(=O)N(Cc2c(F)cccc2Cl)c2cc(C(=O)NCc3c(F)cc(F)cc3F)ccc21` (stereo not shown) [Example 21, 1-(2-chloro-6-fluorobenzyl)-3-methyl-2-oxo-N-(2,4,6-trifluorobenzyl)indoline-6-carboxamide]: the concentration giving a half-maximal response (EC50) is more than 10 µM. As to `CC1(C)C(=O)N(Cc2ccncc2)c2cc(C(=O)NCc3c(F)cc(F)cc3F)ccc21` [Example 22, 3,3-dimethyl-2-oxo-1-(pyridin-4-ylmethyl)-N-(2,4,6-trifluorobenzyl)indoline-6-carboxamide], the EC50 was 1 to 10 µM. Next, `Cc1ccc(CNC(=O)c2ccc3c(c2)N(Cc2c(F)cccc2Cl)C(=O)C3(C)C)s1` [Example 24, 1-(2-chloro-6-fluorobenzyl)-3,3-dimethyl-N-((5-methylthiophen-2-yl)methyl)-2-oxoindoline-6-carboxamide]: 1 to 10 µM; `Cc1cccc(CNC(=O)c2ccc3c(c2)N(Cc2cc(F)cc(F)c2)C(=O)C3(C)C)n1` [Example 28, 1-(3,5-difluorobenzyl)-3,3-dimethyl-N-((6-methylpyridin-2-yl)methyl)-2-oxoindoline-6-carboxamide]: more than 10 µM. Next, `Cc1nnc(CNC(=O)c2ccc3c(c2)N(Cc2cc(F)cc(F)c2)C(=O)C3(C)C)o1` [Example 29, 1-(3,5-difluorobenzyl)-3,3-dimethyl-N-((5-methyl-1,3,4-oxadiazol-2-yl)methyl)-2-oxoindoline-6-carboxamide]: more than 10 µM; `Cc1ncc(CNC(=O)c2ccc3c(c2)N(Cc2c(F)cccc2Cl)C(=O)C3(C)C)o1` [Example 31, 1-(2-chloro-6-fluorobenzyl)-3,3-dimethyl-N-((2-methyloxazol-5-yl)methyl)-2-oxoindoline-6-carboxamide]: more than 10 µM; `Cc1ccnc(CNC(=O)c2ccc3c(c2)N(Cc2c(F)cccc2Cl)C(=O)C3(C)C)c1` [Example 32, 1-(2-chloro-6-fluorobenzyl)-3,3-dimethyl-N-((4-methylpyridin-2-yl)methyl)-2-oxoindoline-6-carboxamide]: more than 10 µM.

`CC1(C)C(=O)N(Cc2cc(F)cc(F)c2)c2c1ccc(C(=O)NCc1cc3ccccc3o1)c2F` [Example 34, N-(benzofuran-2-ylmethyl)-1-(3,5-difluorobenzyl)-7-fluoro-3,3-dimethyl-2-oxoindoline-6-carboxamide] displayed an EC50 of more than 10 µM. Regarding `CC1(C)C(=O)N(Cc2cc(F)cc(F)c2)c2c1ccc(C(=O)NCc1c(F)cc(F)cc1F)c2F` [Example 35, 1-(3,5-difluorobenzyl)-7-fluoro-3,3-dimethyl-2-oxo-N-(2,4,6-trifluorobenzyl)indoline-6-carboxamide], the EC50 was more than 10 µM. Next, `CC1(C)C(=O)N(Cc2cccc(C(N)=O)c2)c2cc(C(=O)NCc3ccc(F)cc3F)ccc21` [Example 38, 1-(3-carbamoylbenzyl)-N-(2,4-difluorobenzyl)-3,3-dimethyl-2-oxoindoline-6-carboxamide]: 1 to 10 µM; `CC1(C)C(=O)N(Cc2cc(F)cc(F)c2)c2cc(C(=O)NCC3CCC(F)(F)C3)ccc21` (stereo not shown) [Example 39, 1-(3,5-difluorobenzyl)-N-((3,3-difluorocyclopentyl)methyl)-3,3-dimethyl-2-oxoindoline-6-carboxamide]: more than 10 µM. Next, `CC1(C)C(=O)N(Cc2cc(F)cc(F)c2)c2cc(C(=O)NCc3nc4ccccc4s3)ccc21` [Example 40, N-(benzo[d]thiazol-2-ylmethyl)-1-(3,5-difluorobenzyl)-3,3-dimethyl-2-oxoindoline-6-carboxamide]: 1 to 10 µM; `CC1(C)C(=O)N(Cc2ccc(F)cc2)c2cc(C(=O)NCc3ccco3)ccc21` [Example 41, 1-(4-fluorobenzyl)-N-(furan-2-ylmethyl)-3,3-dimethyl-2-oxoindoline-6-carboxamide]: 1 to 10 µM. `CC1(C)C(=O)N(Cc2cccc(F)c2)c2cc(C(=O)NCc3ccco3)ccc21` [Example 42, 1-(3-fluorobenzyl)-N-(furan-2-ylmethyl)-3,3-dimethyl-2-oxoindoline-6-carboxamide] came in with an EC50 of more than 10 µM. Next, `CC1(C)C(=O)N(Cc2cc(F)cc(F)c2)c2cc(C(=O)NCC3CCC(F)(F)CC3)ccc21` [Example 43, 1-(3,5-difluorobenzyl)-N-((4,4-difluorocyclohexyl)methyl)-3,3-dimethyl-2-oxoindoline-6-carboxamide]: more than 10 µM.

As to `CC1(C)C(=O)N(Cc2cc(F)cc(F)c2)c2cc(C(=O)NCc3cccc(C#N)c3)ccc21` [Example 44, N-(3-cyanobenzyl)-1-(3,5-difluorobenzyl)-3,3-dimethyl-2-oxoindoline-6-carboxamide], the half-maximal effective concentration (EC50) is more than 10 µM. The molecule `CC1(C)C(=O)N(Cc2cc(F)cc(F)c2)c2cc(C(=O)NCc3cccc(C(F)(F)F)c3)ccc21` [Example 45, 1-(3,5-difluorobenzyl)-3,3-dimethyl-2-oxo-N-(3-(trifluoromethyl)benzyl)indoline-6-carboxamide] registered an EC50 of more than 10 µM. As for `CC1(C)C(=O)N(Cc2ccc(F)c(F)c2)c2cc(C(=O)NCc3ccco3)ccc21` [Example 46, 1-(3,4-difluorobenzyl)-N-(furan-2-ylmethyl)-3,3-dimethyl-2-oxoindoline-6-carboxamide], the concentration giving a half-maximal response (EC50) is 1 to 10 µM. Next, `CC1(C)C(=O)N(Cc2cc(F)cc(F)c2)c2cc(C(=O)NCc3cccc(N=[N+]=[N-])c3)ccc21` [Example 47, N-(3-azidobenzyl)-1-(3,5-difluorobenzyl)-3,3-dimethyl-2-oxoindoline-6-carboxamide]: 1 to 10 µM.

Molecule `CC1(C)C(=O)N(Cc2ccnc(F)c2)c2cc(C(=O)NCc3c(F)cc(F)cc3F)ccc21` [Example 49, 1-((2-fluoropyridin-4-yl)methyl)-3,3-dimethyl-2-oxo-N-(2,4,6-trifluorobenzyl)indoline-6-carboxamide] returned an EC50 of 1 to 10 µM. The molecule `Cc1ccc(CNC(=O)c2ccc3c(c2)N(Cc2ccccc2Cl)C(=O)C3(C)C)o1` [Example 51, 1-(2-chlorobenzyl)-3,3-dimethyl-N-((5-methylfuran-2-yl)methyl)-2-oxoindoline-6-carboxamide] had an EC50 of 1 to 10 µM. Molecule `Cc1cc(CN2C(=O)C(C)(C)c3ccc(C(=O)NCc4c(F)cc(F)cc4F)cc32)on1` [Example 52, 3,3-dimethyl-1-((3-methylisoxazol-5-yl)methyl)-2-oxo-N-(2,4,6-trifluorobenzyl)indoline-6-carboxamide] registered a 50% effective concentration (EC50) of more than 10 µM. Next, `CC1C(=O)N(Cc2cc(F)cc(F)c2)c2cc(C(=O)NCc3c(F)cc(F)cc3F)ccc21` (stereo not shown) [Example 53, 1-(3,5-difluorobenzyl)-3-methyl-2-oxo-N-(2,4,6-trifluorobenzyl)indoline-6-carboxamide]: more than 10 µM.

As to `Cc1cc(CN2C(=O)C(C)(C)c3ccc(C(=O)NCc4ccc(C)o4)cc32)ccn1` [Example 55, 3,3-dimethyl-N-((5-methylfuran-2-yl)methyl)-1-((2-methylpyridin-4-yl)methyl)-2-oxoindoline-6-carboxamide], the concentration giving a half-maximal response (EC50) is more than 10 µM.
